In patent US9157088B2, “Transferases, epimerases, polynucleotides encoding these and uses thereof” (priority 2007, dated 2015):
Values joined by “and” are separate entries in the source; they are usually repeats but may differ in a detail not shown here. Equal values may be shown once.

Experiments:
[1] = target: T1, kiwifruit GDP-L-Galactose Guanyltransferase EST 319998 (Actinidia chinensis, UniProt A0A2R6QD99); assay: Continuous coupled assay of transferase activity with guanyl acceptors; conditions: for % of D-mannose-1P / Rate: sugar phosphate as guanyl acceptor, epimerase generated substrate; for Rate: N = 6; for ability to act as acceptor for the guanyl moiety / vamax / Km: FIG. 3; for ability to act as acceptor for the guanyl moiety: physiological concentrations; for vamax / Km: varying concentrations of the guanyl acceptor, continuous coupled assay
T1 sequence (A0A2R6QD99 entry or part of it): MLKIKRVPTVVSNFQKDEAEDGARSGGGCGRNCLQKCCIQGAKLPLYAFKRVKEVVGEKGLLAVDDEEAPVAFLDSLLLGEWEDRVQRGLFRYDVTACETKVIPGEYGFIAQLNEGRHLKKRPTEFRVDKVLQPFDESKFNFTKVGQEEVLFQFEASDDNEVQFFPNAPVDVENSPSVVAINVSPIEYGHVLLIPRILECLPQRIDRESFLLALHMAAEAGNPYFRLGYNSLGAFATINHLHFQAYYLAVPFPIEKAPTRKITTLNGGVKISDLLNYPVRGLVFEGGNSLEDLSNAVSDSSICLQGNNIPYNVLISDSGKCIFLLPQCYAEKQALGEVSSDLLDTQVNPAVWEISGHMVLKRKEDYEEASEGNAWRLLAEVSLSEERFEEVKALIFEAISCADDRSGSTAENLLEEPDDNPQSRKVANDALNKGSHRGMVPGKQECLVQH
Description: Expression of genes in E. coli. The EST 319998 from young fruit of Actinidia chinensis and At4g26850 were each cloned into pET30A (Novagene, USA), their sequence checked and expressed in E. coli. The N terminal His6 tag was used to purify the protein. An empty vector control was expressed and purified in parallel. Techniques were essentially as described earlier (Laing et al., 2004).
(§1) L-Galactose dehydrogenase (Gen Bank accession AA018639 (EST 56121), 1.5 ug/assay) was cloned from an EST derived from an A. deliciosa (kiwifruit) shoot bud library with a maltose binding protein presequence and assayed as described previously (Laing et al., 2004). L-Galactose-1-Phosphate phosphatase was cloned from Arabidopsis thaliana (At3g02870, 3.1 ug/assay) and assayed as described (Laing et al., 2004). GDP-D-Mannose 3′,5′-Epimerase (198296) was cloned from dormant kiwifruit (A. deliciosa) buds three days after hydrogen cyanamide treatment and assayed as described (Wolucka et al., 2001). The former two enzymes are highly specific as to their substrates (Laing et al., 2004; Laing et al., 2004).
The assay for GDP-L-Galactose-1-Phosphate Guanyltransferase was run in 20 mM TrisCl, pH 8.0, GDP-L-Galactose, with 1 mM D-Mannose-1-Phosphate. […] In the latter case, 0.21 mg of epimerase was incubated with GDP-D-Mannose in 20 mM Tris Cl pH 8 in a total volume of 400 μL (see Wolucka et al., 2001) for 30 minutes at 20 C and then used directly in the assay at a 1 to 20 dilution. Assays were either terminated after 10 minutes by heating to 100 C for three minutes, or directly coupled to the phosphatase and L-Galactose dehydrogenase to measure product formation during the assay. Heat terminated assays were cooled on ice, centrifuged to remove precipitated protein and L-Galactose assayed using the coupling enzymes described above (see also (Laing et al., 2004)).
The applicants used two assays to characterise the enzyme, using two sources of the substrate GDP-L-Galactose. The first assay used the E. coli expressed coupling enzymes L-Galactose-1-Phosphate phosphatase and L-Galactose dehydrogenase. […] The applicants either measured the product formed by adding the coupling enzymes in the assay and measuring the time course of NADH formed, or by stopping the reaction after 10 minutes by boiling for 3 minutes and centrifuging. To this latter fixed time assay, the applicants then either adding coupling enzymes to measure L-Galactose production or using the LCMS to measure the products. The LCMS was used only to confirm the results of the coupled enzyme reaction and to measure the reverse reaction.

[2] = target: T1, kiwifruit GDP-L-Galactose Guanyltransferase EST 319998; assay: Fixed time transferase assay, aliquots measured by LCMS; assay type: biochemical; conditions: acceptor Gal1P (reverse reaction)
Description: The assay for GDP-L-Galactose-1-Phosphate Guanyltransferase was run in 20 mM TrisCl, pH 8.0, GDP-L-Galactose, with 1 mM D-Mannose-1-Phosphate. GDP-L-Galactose was either used directly from the Glycoteam product (in which case high backgrounds were observed due to contaminating L-Galactose-1-Phosphate) or GDP-L-Galactose was generated using the epimerase. In the latter case, 0.21 mg of epimerase was incubated with GDP-D-Mannose in 20 mM Tris Cl pH 8 in a total volume of 400 μL (see Wolucka et al., 2001) for 30 minutes at 20 C and then used directly in the assay at a 1 to 20 dilution. Assays were either terminated after 10 minutes by heating to 100 C for three minutes, or directly coupled to the phosphatase and L-Galactose dehydrogenase to measure product formation during the assay. Heat terminated assays were cooled on ice, centrifuged to remove precipitated protein and L-Galactose assayed using the coupling enzymes described above (see also (Laing et al., 2004)). Assays for L-Galactose were linear with added L-Galactose-1-Phosphate over the range measured. Backgrounds were run using the empty vector control, which gave the same result as a boiled enzyme control.
As an alternative assay, LCMS was used to identify the forward reaction described above as well measure as the reverse pyrophosphorylase reaction where GTP (1 mM) and L-Galactose-1-Phosphate were incubated as above and the formation of GDP-L-Galactose followed. GDP-D-Mannose and GDP-L-Galactose were separated by HPLC before MS. LC-MS employed an LTQ linear ion trap mass spectrometer fitted with an ESI interface (ThermoQuest, Finnigan, San Jose, Calif., USA) coupled to an EttanTM MDLC (GE Healthcare Bio-Sciences). Separation of GDP-D-Mannose and GDP-L-Galactose was achieved using a Hypercarb column (Thermo Electron, USA), 100×2.1 mm maintained at 40 C. Solvents were (A) 50 mM ammonium acetate and (B) acetonitrile and the flow rate was 200 uL/min. The initial mobile phase, 5% B was held for 3 min, then ramped linearly to 20% B at 11 min, held for 5 min, then ramped linearly to 70% B at 19 min and held for 5 min before resetting to the original conditions. Retention times for GDP-D-Mannose and GDP-L-Galactose were 16.8 min and 17.5 min, respectively.
MS data was acquired in the negative mode using both a selective reaction monitoring (SRM) method SRM m/z 604>m/z 344, 362, 424, 442 and a selected ion monitoring (SIM) method SIM m/z 604. This SIM method monitors only the (M-H)— ion for GDP-D-Mannose and GDP-L-Galactose while the SRM method monitors the distinctive daughter ions formed by fragmenting the precursor ion (M-H)— for both compounds. Both methods maximise sensitivity by screening out any chemical noise from other compounds present. The ESI voltage, capillary temperature, sheath gas pressure, sweep gas and auxiliary gas were set at −10 V, 350° C., 25 psi, 3 psi, and 3 psi, respectively. Separation of D-Mannose-1-Phosphate and L-Galactose-1-Phosphate was achieved isocratically using a Hypercarb column (Thermo Electron, USA), 100×2.1 mm maintained at 40° C. Solvents were (A) 20 mM ammonium acetate and (B) methanol and the flow rate was 200 uL/min. Using a mobile phase of 2% B the retention times for D-Mannose-1-Phosphate and L-Galactose-1-Phosphate were 4.3 min and 4.9 min, respectively. MS data was acquired in the negative mode using both a selective reaction monitoring (SRM) method SRM m/z 259>m/z 79, 97 and a selected ion monitoring (SIM) method SIM m/z 259. […]

[3] = system: L-Galactose dehydrogenase; assay: L-Galactose dehydrogenase substrate specificity; assay type: biochemical, A. deliciosa (kiwifruit)
Description: as §1
The applicants used two assays to characterise the enzyme, using two sources of the substrate GDP-L-Galactose. The first assay used the E. coli expressed coupling enzymes L-Galactose-1-Phosphate phosphatase and L-Galactose dehydrogenase. […] The dehydrogenase is specific to L-Galactose, not reacting with D-Mannose or D-Galactose or a range of other sugars (Gatzek et al., 2002; Laing et al., 2004) except for L-Gulose. […] Consequently, our coupled assay would measure primarily L-Galactose and also L-Gulose. The applicants either measured the product formed by adding the coupling enzymes in the assay and measuring the time course of NADH formed, or by stopping the reaction after 10 minutes by boiling for 3 minutes and centrifuging. To this latter fixed time assay, the applicants then either adding coupling enzymes to measure L-Galactose production or using the LCMS to measure the products. The LCMS was used only to confirm the results of the coupled enzyme reaction and to measure the reverse reaction.

[4] = system: Tobacco (Nicotiana benthamiana) leaves; assay: Leaf ascorbate after transient transformation of tobacco leaves; assay type: in vivo; conditions: transient expression with P19
Text: Tobacco (Nicotiana benthamiana) was transiently transformed with Agrobacterium containing the kiwifruit gene for GDP-L-Galactose Guanyltransferase (EST 319998) cloned in pGreen (Hellens et al., 2000) mixed with Agrobacterium containing the gene for the silencing suppressor P19 as previously described (Hellens et al., 2005). Controls were run using Agrobacterium containing P19 in pGreen alone. Tobacco leaves were harvested 9 days after transformation and frozen in liquid nitrogen.
Ascorbate was extracted as described previously in metaphosphoric acid without reducing agent (Davey et al., 2003; Rassam and Laing, 2005). […]

Question: For `O=P(O)(O)O[C@H]1O[C@H](CO)[C@H](O)[C@H](O)[C@H]1O` [D-Galactose-1-P], which “% of D-mannose-1P” value [1] is on record?
Answer: 113%

Question: What about the Rate [1] of the same molecule?
Answer: 0.38 nmoles/sec/ug protein

Question: With `O=P(O)(O)O[C@H]1O[C@H](CO)[C@@H](O)[C@H](O)[C@H]1O` [D-Glucose-1-P] as the molecule, how does the “% of D-mannose-1P” value [1] read?
Answer: 106% and 74%

Question: What about the Rate [1] of the same molecule?
Answer: 0.35 nmoles/sec/ug protein and 0.24 nmoles/sec/ug protein

Question: What does the source list for `O=P(O)(O)OC[C@H]1OC(O)[C@H](O)[C@@H](O)[C@@H]1O` (stereo partly drawn) [D-Glucose-6-P]?
Answer: rate relative to the best acceptors ([1]; guanyl acceptor, Table 2): about 25%; % of D-mannose-1P [1]: 24%; Rate [1]: 0.08 nmoles/sec/ug protein

Question: Which “ability to act as acceptor for the guanyl moiety” value [1] does the source give for `O=P(O)(O)O[C@H]1O[C@H](CO)[C@@H](O)[C@H](O)[C@@H]1O` [D-Mannose-1-P, D-Mannose-1-Phosphate] here?
Answer: better acceptor for the guanyl moiety than phosphate or pyrophosphate

Question: And the “% of D-mannose-1P” value [1]?
Answer: 100%

Question: What about the Rate [1] of the same molecule?
Answer: 0.33 nmoles/sec/ug protein

Question: What about the vamax [1] of the same molecule?
Answer: 0.17±0.009 nmoles sec^−1 ug^−1 protein

Question: Which “transferase activity, LCMS” value ([2]; 0.057 ug protein) does the source give for `Nc1nc2c(ncn2[C@@H]2O[C@H](COP(=O)(O)OP(=O)(O)O[C@H]3O[C@H](CO)[C@@H](O)[C@H](O)[C@@H]3O)[C@@H](O)[C@H]2O)c(=O)[nH]1` [GDPMan, GDP-D-Mannose] here?
Answer: 0 nmoles/sec/ug protein

Question: And the “transferase activity, LCMS” value ([2]; 1.14 ug protein)?
Answer: 0 nmoles/sec/ug protein

Question: How did the “transferase activity, LCMS” value ([2]; 0.057 ug protein) turn out when `Nc1nc2c(ncn2[C@@H]2O[C@H](COP(=O)(O)OP(=O)(O)OP(=O)(O)O)[C@@H](O)[C@H]2O)c(=O)[nH]1` [GTP] was run?
Answer: 0 nmoles/sec/ug protein

Question: What about the “transferase activity, LCMS” value ([2]; 1.14 ug protein) of the same molecule?
Answer: 0 nmoles/sec/ug protein

Question: Which results are given for `O=C[C@@H](O)[C@@H](O)[C@H](O)[C@@H](O)CO` [L-Gulose]?
Answer: KM (substrate) relative to L-Galactose [3]: 30 times; maximum velocity with L-Gulose relative to L-Galactose [3]: approximately 2.5 fold; activity compared with L-Galactose ([3]; at limiting substrate concentrations): about 8%

Question: Which results are given for `O=P(O)(O)O` [phosphate, inorganic phosphate]?
Answer: ability to act as acceptor for the guanyl moiety [1]: reaction was seen; Km [1]: 4.4 ± 2 mM; vamax [1]: 0.12±0.03 nmoles sec^−1 ug^−1 protein

Question: What does the source list for `O=P(O)(O)OP(=O)(O)O` [pyrophosphate, inorganic pyrophosphate]?
Answer: ability to act as acceptor for the guanyl moiety [1]: reaction was seen; Km [1]: 0.16 ± 0.05 mM; vamax [1]: 0.032±0.002 nmoles sec^−1 ug^−1 protein

B1: 82552_Md: GDP-L-Galactose Guanyltransferase from Malus x domesticus (apple) (protein)
chain: MLRIKRVPTVVSNYQKDEAEEVARRVGGCGRNCLNQCCIPGAKLPLYAFKKLNVNDGDTGLLGREKREPPVAFLDSLLLGEWEDRMQRGLFRYDVTACETKVIPGQFGFIAQLNEGRHLKKRPTEFRVDKVLQPFDGSKFNFTKVGQEEVLFQFEASKDGEVQFFPSAPIDVESSPSVVAINVSPIEYGHVLLIPHILERLPQRIDRESFLLALHMAAEAGNPYFRLGYNSLGAFATINHLHFQAYYLAVTFPIEKAPTKKISTLNAEVKVSELLNYPVRGLVFEGGNTLQDLSNTVSDACICLQENNIPYNVLISDSGKRIFLVPQCYAEKQALGEVRAEILDTQVNPAVWEISGHMVLKRKKDYDEASDENAWKLLAEVSLSEERFLEVNALIFEGIASGDNGNENLLKDPEVKPRSHEEVNTINKRVHCSAVNEQICRVFTM
modifications: Malus x domesticus
Question: B1 was tested. Which “effect on leaf ascorbate” value [4] did it give?
Answer: increased ascorbate levels in the leaf
